Test results reported in PubChem BioAssay (NCI).
Several values for one entry are separate records, joined by “and”; a condition that tells them apart may be missing. Equal values may be shown once.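 Cultured in 96-well plates, cells were exposed to test compound for 48 hours across five concentrations. GI50 marks 50% less growth. TGI: total growth inhibition.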

Experiments:
Experiment in all cases: growth of human tumour cells (NCI), 48 h
COLO 205 colon = tested on: COLO 205 colon
HCC-2998 colon = tested on: HCC-2998 colon
NCI-H460 lung = tested on: NCI-H460 lung
OVCAR-4 ovarian = tested on: OVCAR-4 ovarian
RPMI-8226 leukemia = tested on: RPMI-8226 leukemia
U251 CNS = tested on: U251 CNS
LOX IMVI melanoma = tested on: LOX IMVI melanoma
MDA-MB-435 = tested on: MDA-MB-435
SK-MEL-5 melanoma = tested on: SK-MEL-5 melanoma
T-47D breast = tested on: T-47D breast

Compound | TGI (COLO 205 colon) | TGI (HCC-2998 colon) | TGI (NCI-H460 lung) | TGI (OVCAR-4 ovarian) | TGI (RPMI-8226 leukemia) [µM] | TGI (U251 CNS) | GI50 (COLO 205 colon) [µM] | GI50 (HCC-2998 colon) [µM] | GI50 (LOX IMVI melanoma) [µM] | TGI (LOX IMVI melanoma) | GI50 (MDA-MB-435) [µM] | TGI (MDA-MB-435) [µM] | GI50 (NCI-H460 lung) [µM] | GI50 (SK-MEL-5 melanoma) [µM] | TGI (SK-MEL-5 melanoma) | GI50 (T-47D breast) [µM] | TGI (T-47D breast) [µM] | GI50 (U251 CNS) [µM] | GI50 (OVCAR-4 ovarian) [µM] | GI50 (RPMI-8226 leukemia) [µM]
CCOC(=O)C1=C(C)N(Cc2ccccc2)C(=O)C1CC#N (stereo unspecified) | > 100 µM | > 100 µM | > 100 µM | > 100 µM | > 100 | > 100 µM | – | – | – | – | – | – | – | – | – | – | – | – | – | –
CCN(CC)CCOc1ccc(/C=C2\C[C@H]3[C@H]4CC=C5C[C@@H](O)CC[C@]5(C)[C@H]4CC[C@]3(C)[C@H]2O)cc1OC | > 50 µM | 20.6 µM | > 50 µM | – | – | 17.3 µM | 12.8 | 11.6 | 7.7 | 15.3 µM | 7.75 | 16.5 | 13.1 | 0.625 | 11.1 µM | 24.5 | > 50 | 9.53 | – | –
C=C(C)C1CC=C(C)CC1 (stereo unspecified) | > 100 µM and 1760 µM | > 100 µM and 1730 µM | > 100 µM and 1730 µM | > 100 µM and 2070 µM | > 100 | > 100 µM and 1480 µM | > 100 | > 100 | > 100 | > 100 µM and 1620 µM | – | – | > 100 | > 100 | > 100 µM and 1560 µM | – | – | > 100 | > 100 | –
COC(=O)NC(=Nc1ccc(Oc2ccccc2)cc1NC=O)NC(=O)OC | 0.618 µM | 5.27 µM | – | > 100 µM | > 100 | 1.21 µM | – | – | – | > 100 µM | – | – | – | – | > 100 µM | – | – | – | – | –
COc1ccc2c(c1)C1OCCNC1CC2 (stereo unspecified) | > 100 µM | – | – | – | > 100 | > 100 µM | – | – | – | > 100 µM | – | > 100 | – | – | > 100 µM | – | > 100 | – | – | –
O=S(=O)(c1ccc(Br)cc1)N1CCN(S(=O)(=O)c2ccc(Br)cc2)CC1 | > 100 µM | – | – | > 100 µM | > 100 | > 100 µM | – | – | – | > 100 µM | – | > 100 | – | – | > 100 µM | – | > 100 | – | – | –
NCCCn1c2c(c3ccc([N+](=O)[O-])cc3c1=O)C(=O)c1cc(-c3ccccc3)ccc1-2 | – | 1.27 µM | 1.38 µM | 1.62 µM | 1.45 | 0.313 µM | – | 0.31 | 0.916 | 2.59 µM | 1.65 | 3.11 | 0.34 | 1.31 | 2.62 µM | – | – | 0.172 | 0.399 | 0.348
O=C(CC1(O)C(=O)Nc2ccccc21)c1ccc(F)cc1 (stereo unspecified) | > 100 µM | – | > 100 µM | > 100 µM | > 100 | – | – | – | – | > 100 µM | – | – | – | – | > 100 µM | – | – | – | – | –
NCCCCCCCCCCCn1c2c(c3ccccc3c1=O)C(=O)c1ccccc1-2 | 5.45 µM | 9.72 µM | 29.7 µM | 8.63 µM | – | 27.1 µM | 2.24 | 2.76 | 5 | 21.1 µM | 11 | 47.9 | 4.26 | 10.3 | 29.5 µM | 4.42 | 26.6 | 10.2 | 2.86 | –
C1COCCOCCOCCOCCOCCO1.[Cl][Sn]([Cl])([c]1ccccc1)[c]1ccccc1 | 4.34 µM | 18.9 µM | 30.5 µM | 26.3 µM | 6.15 | 6.81 µM | 1.83 | 6.06 | 2.36 | 4.77 µM | – | – | 15.1 | 4.86 | 17.2 µM | – | – | 2.65 | 12.3 | 2.02
C/C=C(/CCC1NCCC2c3ccccc3NC12)[Si](C)(C)C (stereo unspecified) | 3.15 µM | 3.61 µM | 12.4 µM | 20.9 µM | 13.7 | 25.4 µM | – | – | – | 20.2 µM | – | – | – | – | 26 µM | – | – | – | – | –
CSc1nc2c(nc(N)n2C2OC(COC(C)=O)C(OC(C)=O)C(OC(C)=O)C2OC(C)=O)c(=O)n1C (stereo unspecified) | > 100 µM | > 100 µM | > 100 µM | > 100 µM | > 100 | > 100 µM | – | – | – | > 100 µM | – | – | – | – | > 100 µM | – | – | – | – | –
COc1cc2nc(-c3ccc(Cl)cc3)cc(OCCCN3CCCC3)c2cc1OC | 3.12 µM | 6.01 µM | 11.2 µM | 22.6 µM | – | 14.5 µM | 0.459 | 1.86 | 0.191 | 0.446 µM | 2.72 | 10.8 | 0.823 | 0.961 | 2.16 µM | 1.02 | 10.5 | 1.79 | 3 | –
CC(=O)[CH-]C(=O)c1ccccc1.CC(=O)[CH-]C(=O)c1ccccc1.CC[C@H](/C=C/C(C)[C@H]1CCC2[C@@H]3CC=C4C[C@@H]([O-])CC[C@]4(C)C3CC[C@@]21C)C(C)C.CC[O-].[Ti+4] (stereo partly specified) | > 100 µM | > 100 µM | > 100 µM | > 100 µM | > 100 | > 100 µM | > 100 | > 100 | > 100 | > 100 µM | – | – | > 100 | > 100 | > 100 µM | – | – | > 100 | > 100 | > 100
Cn1c(=O)c2ccc(-c3ccc(Br)cc3)nc2n(C)c1=O | > 100 µM | > 100 µM | > 100 µM | > 100 µM | > 100 | > 100 µM | – | – | – | > 100 µM | – | – | – | – | > 100 µM | – | – | – | – | –
COc1ccc(-c2nc(Nc3ccc(-c4nc5ccccc5[nH]4)cc3)nc(N3CCOCC3)n2)cc1 | 4.21 µM | > 100 µM | 6.51 µM | 13 µM | 6.54 | 13.6 µM | 1.92 | 3.09 | – | – | – | – | 2.48 | 1.79 | 3.36 µM | – | – | 2.04 | 3.13 | 1.93
CC(=O)[CH-]C(=O)c1ccccc1.CC(=O)[CH-]C(=O)c1ccccc1.CC1(C)OCC(C2OC3OC(C)(C)OC3C2[O-])O1.CC1(C)OCC(C2OC3OC(C)(C)OC3C2[O-])O1.[Ti+4] (stereo unspecified) | – | – | 28.4 µM | 68.4 µM | – | – | – | – | 13.7 | 34.2 µM | – | – | 11.3 | – | – | – | – | – | 20.4 | –
COc1cccc(NC(=O)C(C)(C)C)c1SSc1c(NC(=O)C(C)(C)C)cccc1OC | 69.9 µM | > 100 µM | > 100 µM | > 56.3 µM | 51 | 35.1 µM | – | – | – | 30.4 µM | – | – | – | – | > 100 µM | – | – | – | – | –
